# Laboratory results reported in paper PMC12866788, “Alternative Pathway for Methyl Supply through the Coupling of SHMT1 and PEMT to Maintain Astrocytic Homeostasis in Parkinson's Disease” (Advanced Science, 2025).
# Target: T1, SHMT1-PEMT complex (Mus musculus, UniProt P50431+Q61907)
# T1 construct: native SHMT1-PEMT complex, co-immunoprecipitate / NP-40 lysate of mouse primary astrocytes; full length, untagged; direct SHMT1-PEMT contact not proven
# T1 sequence (P50431 1-478): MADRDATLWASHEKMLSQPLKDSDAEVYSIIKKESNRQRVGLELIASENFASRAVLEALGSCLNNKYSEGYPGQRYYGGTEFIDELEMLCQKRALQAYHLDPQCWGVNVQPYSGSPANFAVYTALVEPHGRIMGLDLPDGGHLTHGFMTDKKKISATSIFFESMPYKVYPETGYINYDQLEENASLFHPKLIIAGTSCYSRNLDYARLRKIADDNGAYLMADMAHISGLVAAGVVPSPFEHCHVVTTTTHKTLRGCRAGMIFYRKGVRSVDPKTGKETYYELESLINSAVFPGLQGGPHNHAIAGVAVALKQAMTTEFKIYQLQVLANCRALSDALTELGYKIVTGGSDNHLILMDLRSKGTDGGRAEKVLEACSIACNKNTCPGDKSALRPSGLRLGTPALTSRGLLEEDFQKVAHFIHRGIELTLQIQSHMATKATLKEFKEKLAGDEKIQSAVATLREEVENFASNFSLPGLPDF
# T1 sequence (Q61907 1-199): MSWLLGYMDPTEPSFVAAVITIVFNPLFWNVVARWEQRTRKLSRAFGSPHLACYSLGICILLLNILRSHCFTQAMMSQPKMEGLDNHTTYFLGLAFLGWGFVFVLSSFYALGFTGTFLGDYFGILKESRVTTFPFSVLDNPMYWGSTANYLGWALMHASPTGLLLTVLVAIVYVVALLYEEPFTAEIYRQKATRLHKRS
# Test: CETSA and DARTS of co-IP samples, Western blot
# Assay type: biochemical
# Details: 10 µM isoorientin; astrocytes with MPP+ 24 h; heating at 37-67 °C 3 min; protease K digestion 1:400-1:3200; either chain may hold the compound
smiles,measurement,value
"O=c1cc(-c2ccc(O)c(O)c2)oc2cc(O)c([C@@H]3O[C@H](CO)[C@@H](O)[C@H](O)[C@H]3O)c(O)c12 [TMA0698, Isoorientin]","CETSA and DARTS of co-IP samples, Western blot",we found that Iso significantly promoted SHMT1 and PEMT protein stability
